In PubChem BioAssay (NCI):
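Method: 48-hour compound exposure of cells in 96-well plates, five concentrations, linear interpolation of endpoints. Here, GI50 denotes the concentration required for 50% inhibition of growth. TGI: concentration producing complete growth inhibition.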

Columns and labels:
Test in all cases: inhibition of tumour cell growth, NCI panel, 48 h
[1] = system: K-562 leukemia
[2] = system: DLD-1 colon
[3] = system: TK-10 renal
[4] = system: SN12C renal
[5] = system: M14 melanoma
[6] = system: KM20L2 colon
[7] = system: OVCAR-3 ovarian
[8] = system: T-47D breast
[9] = system: NCI/ADR-RES ovarian

Structure (SMILES): c1ccc2c(c1)CCc1c(-c3ccncc3)n[nH]c1-2
- TGI [1]: > 100 µM
- TGI [2]: > 100 µM
- TGI [3]: > 100 µM
- TGI [4]: > 100 µM
- TGI [5]: 47.9 µM
- TGI [6]: 45.9 µM
- TGI [7]: 33.3 µM

Structure (SMILES): O=S(=O)(OI(OI(OS(=O)(=O)C(F)(F)F)c1ccccc1)c1ccccc1)C(F)(F)F
- TGI [1]: > 100 µM
- TGI [2]: > 100 µM
- TGI [3]: > 100 µM
- TGI [4]: > 100 µM
- TGI [5]: > 100 µM
- TGI [6]: > 100 µM
- TGI [7]: > 100 µM

Structure (SMILES): COc1cc(C[P+](c2ccccc2)(c2ccccc2)c2ccccc2)cc(OC)c1OC
- TGI [1]: > 100 µM
- TGI [2]: > 100 µM
- TGI [3]: > 100 µM
- TGI [4]: > 100 µM
- TGI [5]: > 100 µM
- TGI [6]: > 100 µM
- TGI [7]: > 100 µM

Structure (SMILES): CCOc1ccc(NC(=O)CC2SC(=Nc3ccc(C)cc3C)NC2=O)cc1 (stereo not given)
- TGI [1]: > 100 µM
- TGI [2]: > 100 µM
- TGI [3]: > 100 µM
- TGI [4]: > 100 µM
- TGI [5]: > 100 µM
- TGI [6]: > 100 µM
- TGI [7]: > 100 µM

Structure (SMILES): O=C(c1ccc([N+](=O)[O-])cc1[N+](=O)[O-])N(/N=C/C=C/c1ccccc1)c1nnc(-c2ccccc2)c(-c2ccccc2)n1
- TGI [1]: 57.3 µM
- TGI [2]: > 100 µM
- TGI [3]: 78 µM
- TGI [4]: > 100 µM
- TGI [5]: > 100 µM
- TGI [6]: > 100 µM
- TGI [7]: > 100 µM

Structure (SMILES): CCOc1ccc(OCC(=O)O)c2c1CCCC2=O
- TGI [2]: > 100 µM
- TGI [3]: > 100 µM
- TGI [4]: > 100 µM
- TGI [5]: > 100 µM
- TGI [7]: > 100 µM

Structure (SMILES): CC(=O)N/C(=C\c1ccccc1/C=C(\NC(C)=O)c1nc2cc(C)c(C)cc2[nH]1)c1nc2cc(C)c(C)cc2[nH]1
- TGI [1]: 95.5 µM
- TGI [2]: 56.5 µM
- TGI [3]: > 100 µM
- TGI [4]: 35.3 µM
- TGI [5]: 23.9 µM
- TGI [6]: > 100 µM
- TGI [7]: 35.7 µM

Structure (SMILES): CN(C)CCNC(=O)Cc1ccccc1Nc1c(Cl)cccc1Cl
- TGI [1]: 37.5 µM
- TGI [2]: 27.3 µM
- TGI [3]: 27.2 µM
- TGI [4]: 31.4 µM
- TGI [5]: 33.9 µM
- TGI [6]: 13.9 µM
- TGI [7]: 36.1 µM

Structure (SMILES): C[N+](C)(C)CC(=O)N/N=C(/Cc1cc(=O)oc2cc(O)ccc12)C(=O)Nc1ccc(Cl)cc1
- TGI [1]: > 100 µM
- TGI [2]: > 100 µM
- TGI [3]: > 100 µM
- TGI [4]: > 100 µM
- TGI [5]: > 100 µM
- TGI [6]: > 100 µM
- TGI [7]: > 100 µM

Structure (SMILES): CC1=C(C(=O)Nc2ccccc2)C(c2ccc(Cl)c(Cl)c2)C(C(=O)Nc2ccccc2)=C(C)N1
- TGI [2]: 25.7 µM
- TGI [3]: 75.2 µM
- TGI [4]: 28.5 µM
- TGI [5]: 25.1 µM
- TGI [6]: 29.8 µM
- TGI [7]: 25.3 µM

Structure (SMILES): CCC(C)(C)n1c(C)nc2c1C(=O)c1ccccc1C2=O
- TGI [1]: > 100 µM
- TGI [2]: > 100 µM
- TGI [3]: > 100 µM
- TGI [4]: > 100 µM
- TGI [5]: > 100 µM
- TGI [6]: > 100 µM
- TGI [7]: > 100 µM

Structure (SMILES): CCCCCCCC(=O)OCC1OC(n2cc(F)c(=O)[nH]c2=O)C(N)C(OC(=O)CCCCCCC)C1O (stereo not given)
- TGI [3]: 56.9 µM
- TGI [4]: 32.5 µM
- TGI [5]: 32.2 µM
- TGI [6]: 33.7 µM
- TGI [7]: 41.2 µM

Structure (SMILES): CCCN(CCC)c1c([N+](=O)[O-])cc(C(=O)N(CC)CC)cc1[N+](=O)[O-]
- TGI [1]: > 100 µM
- TGI [2]: > 100 µM
- TGI [3]: 76.8 µM
- TGI [4]: > 100 µM
- TGI [5]: 79.5 µM
- TGI [6]: 53.1 µM
- TGI [7]: 33.3 µM

Structure (SMILES): CNCCCNc1ccnc2cc(Cl)ccc12
- GI50 [8]: 25.7 µM
- TGI [8]: > 100 µM
- GI50 [9]: 34.4 µM
- TGI [9]: > 100 µM
- GI50 [1]: 15.2 µM
- TGI [1]: > 100 µM
- GI50 [3]: 18 µM
- TGI [3]: 54.4 µM
- GI50 [4]: 24.6 µM
- TGI [4]: > 100 µM
- GI50 [5]: 16 µM
- TGI [5]: 34.4 µM
- GI50 [7]: 27.6 µM
- TGI [7]: 95.5 µM

Structure (SMILES): CCN(Cc1c(F)cccc1OC)c1ccc(CO)c(Cl)c1
- GI50 [8]: 0.0467 µM
- TGI [8]: 0.283 µM
- GI50 [9]: 13.3 µM
- TGI [9]: 43.1 µM
- GI50 [1]: 0.623 µM
- TGI [1]: 15.7 µM
- TGI [3]: 0.0536 µM
- GI50 [4]: 12.8 µM
- TGI [4]: 26 µM
- GI50 [5]: 19.7 µM
- TGI [5]: 47.8 µM
- GI50 [7]: 0.253 µM
- TGI [7]: 1.81 µM

Structure (SMILES): COC(=O)/C=C/c1cc(OC(C)=O)c2c(c1)C(C(=O)OC)C(c1ccc(OC(C)=O)c(OC(C)=O)c1)O2 (stereo not given)
- GI50 [8]: 3.11 µM
- TGI [8]: > 76.8 µM
- GI50 [9]: 0.098 µM
- TGI [9]: > 100 µM
- GI50 [1]: 0.0405 µM
- TGI [1]: > 100 µM
- GI50 [3]: 8.98 µM
- TGI [3]: > 93.2 µM
- GI50 [4]: 0.253 µM
- TGI [4]: > 42.5 µM
- GI50 [5]: 0.0411 µM
- TGI [5]: 15.1 µM
- GI50 [7]: 0.0374 µM
- TGI [7]: 15.8 µM

Structure (SMILES): COc1cc2c(cc1OCCCN1CCN(CCCOc3cc4c(cc3OC)C(=O)N3CC(F)(F)C[C@H]3C=N4)CC1)N=C[C@@H]1CC(F)(F)CN1C2=O
- GI50 [8]: 3.25 µM
- TGI [8]: 36.9 µM
- GI50 [9]: 25.2 µM
- TGI [9]: 72.9 µM
- GI50 [1]: 1.74 µM
- TGI [1]: > 100 µM
- GI50 [3]: 4.38 µM
- TGI [3]: 12.9 µM
- GI50 [4]: 4.05 µM
- TGI [4]: 19.5 µM
- GI50 [5]: 3.25 µM
- TGI [5]: 16.5 µM
- GI50 [7]: 3.55 µM
- TGI [7]: 10.6 µM

Structure (SMILES): COc1ccc(Cl)cc1NC(=O)c1ccc(NC2=C(Cl)C(=O)N(Cc3ccccc3)C2=O)cc1
- GI50 [8]: > 100 µM
- TGI [8]: > 100 µM
- GI50 [9]: 55.1 µM
- TGI [9]: > 100 µM
- GI50 [1]: 6.87 µM
- TGI [1]: > 100 µM
- GI50 [3]: > 100 µM
- TGI [3]: > 100 µM
- GI50 [4]: 23 µM
- TGI [4]: > 100 µM
- GI50 [5]: > 100 µM
- TGI [5]: > 100 µM
- GI50 [7]: 36.3 µM
- TGI [7]: > 100 µM
